Experimental data from patent US9149476B2, “Thiochromene derivatives as HIF hydroxylase inhibitors” (FibroGen, Inc., priority 2008, dated 2015).
Where a name gives a salt, the structure may show the parent alone.

The compounds below were run against T1, HIF-PH2 (EGLN1) (Homo sapiens, UniProt Q9GZT9) (assay: HIF-PH assay (14CO2 capture, peptide-dependent turnover)). Settings: compound concentration 7.4 μM.
T1 construct: made in house; host or cells: insect Hi5 cells
Type: biochemical
Source text: Ketoglutaric acid α-[1-^14C]-sodium salt, alpha-ketoglutaric acid sodium salt, and HPLC purified peptide may be obtained from commercial sources, e.g., Perkin-Elmer (Wellesley Mass.), Sigma-Aldrich, and SynPep Corp. (Dublin Calif.), respectively. Peptides for use in the assay may be fragments of HIFα as described above or as disclosed in International Publication WO 2005/118836, incorporated by reference herein. For example, a HIF peptide for use in the HIF-PH assay is [methoxycoumarin]-DLDLEALAPYIPADDDFQL-amide (SEQ ID NO:2). HIF-PH, e.g., HIF-PH2 (EGLN1), can be expressed in, e.g., insect Hi5 cells, and partially purified, e.g., through a SP ion exchange chromatography column. Enzyme activity is determined by capturing ^14CO2 using an assay described by Kivirikko and Myllyla (1982, Methods Enzymol. 82:245-304). Assay reactions contain 50 mM HEPES (pH 7.4), 100 μM α-ketoglutaric acid sodium salt, 0.30 μCi/mL ketoglutaric acid α-[1-^14C]-sodium salt, 40 μM FeSO4, 1 mM ascorbate, 1541.8 units/mL Catalase, with or without 50 μM peptide substrate and various concentrations of compound of the invention. Reactions are initiated by addition of HIF-PH enzyme.
The peptide-dependent percent turnover is calculated by subtracting percent turnover in the absence of peptide from percent turnover in the presence of substrate peptide. Percent inhibition and IC50 are calculated using peptide-dependent percent turnover at given inhibitor concentrations. Calculation of IC50 values for each inhibitor is conducted using GraFit software (Erithacus Software Ltd., Surrey UK).
Representative compounds of the invention were analyzed using the HIF-PH assay described above. Table 1 presents enzyme inhibition data for exemplary compounds against HIF-PH2, a representative HIF prolyl hydroxylase. By inhibiting HIF prolyl hydroxylase, compounds of the invention stabilize HIFα, which then combines with HIFβ to form an active transcription factor that increases expression of various genes involved in numerous beneficial cellular processes.

T1 sequence (Q9GZT9 whole entry): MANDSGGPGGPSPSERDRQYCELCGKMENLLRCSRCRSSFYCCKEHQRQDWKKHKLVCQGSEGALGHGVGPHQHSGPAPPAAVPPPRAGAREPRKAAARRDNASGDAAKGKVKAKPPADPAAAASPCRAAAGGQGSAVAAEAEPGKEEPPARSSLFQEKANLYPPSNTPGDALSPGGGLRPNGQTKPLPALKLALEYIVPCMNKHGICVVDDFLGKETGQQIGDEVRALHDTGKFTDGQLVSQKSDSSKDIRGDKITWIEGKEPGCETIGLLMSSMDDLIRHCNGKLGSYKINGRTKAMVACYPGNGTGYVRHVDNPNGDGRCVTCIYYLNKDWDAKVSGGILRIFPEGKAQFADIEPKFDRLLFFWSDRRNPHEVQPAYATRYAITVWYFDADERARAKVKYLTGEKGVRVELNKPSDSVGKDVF

First: O=C(O)CNC(=O)c1c(O)c2cc(Cl)ccc2sc1=O [Example 58, [(6-Chloro-4-hydroxy-2-oxo-2H-thiochromene-3-carbonyl)-amino]-acetic acid]
Second: O=C(O)CNC(=O)c1c(O)c2cc(Cl)cc(C#Cc3ccccc3)c2sc1=O [Example 56, [(6-Chloro-4-hydroxy-2-oxo-8-phenylethynyl-2H-thiochromene-3-carbonyl)-amino]-acetic acid]
The inhibition at 7.4 µM of the first is lower: 96.8% for the first, 99.7% for the second.

Same assay, conditions: compound concentration 12.5 μM

Going from Cc1ccc2c(O)c(C(=O)NCC(=O)O)c(=O)sc2c1 [Example 6, [(4-Hydroxy-7-methyl-2-oxo-2H-thiochromene-3-carbonyl)-amino]-acetic acid] to COc1ccc(-c2ccc3c(O)c(C(=O)NCC(=O)O)c(=O)sc3c2)cc1 [Example 7, {[4-Hydroxy-7-(4-methoxy-phenyl)-2-oxo-2H-thiochromene-3-carbonyl]-amino}-acetic acid], the inhibition at 12.5 µM rises from 94.5% to 98.7%.

Same assay, conditions: compound concentration 50 μM

Going from C[C@H](NC(=O)c1c(O)c2ccc(-c3cc(C(F)(F)F)nn3C)cc2sc1=O)C(=O)O [Example 55, 2-(S)-{[4-Hydroxy-7-(2-methyl-5-trifluoromethyl-2H-pyrazol-3-yl)-2-oxo-2H-thiochromene-3-carbonyl]-amino}-propionic acid] to Cn1nc(C(F)(F)F)cc1-c1cccc2c(O)c(C(=O)NCC(=O)O)c(=O)sc12 [Example 49, {[4-Hydroxy-8-(2-methyl-5-trifluoromethyl-2H-pyrazol-3-yl)-2-oxo-2H-thiochromene-3-carbonyl]-amino}-acetic acid], the inhibition at 50 µM rises from 94.5% to 100%.

First: C[C@H](NC(=O)c1c(O)c2cc(Cl)ccc2sc1=O)C(=O)O [Example 59, 2-(S)-[(6-Chloro-4-hydroxy-2-oxo-2H-thiochromene-3-carbonyl)-amino]-propionic acid]
Second: C[C@H](NC(=O)c1c(O)c2ccc(Cl)cc2sc1=O)C(=O)O [Example 61, 2-(S)-[(7-Chloro-4-hydroxy-2-oxo-2H-thiochromene-3-carbonyl)-amino]-propionic acid]
The inhibition at 50 µM of the first is lower: 95.6% for the first, 100% for the second.

First: O=C(O)CNC(=O)c1c(O)c2ccc(-c3ccc4ccccc4c3)cc2sc1=O [Example 18, [(4-Hydroxy-7-naphthalen-2-yl-2-oxo-2H-thiochromene-3-carbonyl)-amino]-acetic acid]
Second: O=C(O)CNC(=O)c1c(O)c2ccc(-c3ccccc3)cc2sc1=O [Example 12, [(4-Hydroxy-2-oxo-7-phenyl-2H-thiochromene-3-carbonyl)-amino]-acetic acid]
The inhibition at 50 µM of the first is lower: 87.9% for the first, 96.8% for the second.

Compared with O=C(O)CNC(=O)c1c(O)c2ccc(-c3ccc(C(F)(F)F)cc3)cc2sc1=O [Example 11, {[4-Hydroxy-2-oxo-7-(4-trifluoromethyl-phenyl)-2H-thiochromene-3-carbonyl]-amino}-acetic acid], O=C(O)CNC(=O)c1c(O)c2cc(-c3ccc(OC(F)(F)F)cc3)ccc2sc1=O [Example 40, {[4-Hydroxy-2-oxo-6-(4-trifluoromethoxy-phenyl)-2H-thiochromene-3-carbonyl]-amino}-acetic acid] is lower in inhibition at 50 µM: 95.8% for the first, 94.8% for the second.

O=C(O)CNC(=O)c1c(O)c2cccc(Cc3ccccc3)c2sc1=O [Example 47, [(8-Benzyl-4-hydroxy-2-oxo-2H-thiochromene-3-carbonyl)-amino]-acetic acid] and O=C(O)CNC(=O)c1c(O)c2cc(OCc3ccccc3)ccc2sc1=O [Example 62, [(6-Benzyloxy-4-hydroxy-2-oxo-2H-thiochromene-3-carbonyl)-amino]-acetic acid] are the same in inhibition at 50 µM: 100% for the first, 100% for the second.

O=C(O)CNC(=O)c1c(O)c2cc(Cl)cc(-c3cc(C(F)(F)F)cc(C(F)(F)F)c3)c2sc1=O [Example 43, {[8-(3,5-Bis-trifluoromethyl-phenyl)-6-chloro-4-hydroxy-2-oxo-2H-thiochromene-3-carbonyl]-amino}-acetic acid] and Cn1nc(C(F)(F)F)cc1-c1cc(Cl)cc2c(O)c(C(=O)NCC(=O)O)c(=O)sc12 [Example 45, {[6-Chloro-4-hydroxy-8-(2-methyl-5-trifluoromethyl-2H-pyrazol-3-yl)-2-oxo-2H-thiochromene-3-carbonyl]-amino}-acetic acid] are the same in inhibition at 50 µM: 100% for the first, 100% for the second.

First: O=C(O)CNC(=O)c1c(O)c2cc(NC(=O)c3ccccc3)ccc2sc1=O [Example 41, [(6-Benzoylamino-4-hydroxy-2-oxo-2H-thiochromene-3-carbonyl)-amino]-acetic acid]
Second: O=C(O)CNC(=O)c1c(O)c2ccc(-c3cccnc3)cc2sc1=O [Example 15, [(4-Hydroxy-2-oxo-7-pyridin-3-yl-2H-thiochromene-3-carbonyl)-amino]-acetic acid, sodium salt]
The inhibition at 50 µM of the first is higher: 100% for the first, 95.2% for the second.

First: O=C(O)CNC(=O)c1c(O)c2cc(Cl)cc(-c3cccnc3)c2sc1=O [Example 46, [(6-Chloro-4-hydroxy-2-oxo-8-pyridin-3-yl-2H-thiochromene-3-carbonyl)-amino]-acetic acid]
Second: O=C(O)CNC(=O)c1c(O)c2ccc(-c3cncnc3)cc2sc1=O [Example 14, [(4-Hydroxy-2-oxo-7-pyrimidin-5-yl-2H-thiochromene-3-carbonyl)-amino]-acetic acid]
The inhibition at 50 µM of the first is higher: 100% for the first, 99.5% for the second.

First: O=C(O)CNC(=O)c1c(O)c2cc(OCC3CCCCC3)ccc2sc1=O [Example 63, [(6-Cyclohexylmethoxy-4-hydroxy-2-oxo-2H-thiochromene-3-carbonyl)-amino]-acetic acid]
Second: O=C(O)CNC(=O)c1c(O)c2c(F)cccc2sc1=O [Example 52, [(5-Fluoro-4-hydroxy-2-oxo-2H-thiochromene-3-carbonyl)-amino]-acetic acid]
The inhibition at 50 µM of the first is higher: 98.9% for the first, 98.5% for the second.

COc1cccc(-c2ccc3c(O)c(C(=O)NCC(=O)O)c(=O)sc3c2)c1 [Example 8, {[4-Hydroxy-7-(3-methoxy-phenyl)-2-oxo-2H-thiochromene-3-carbonyl]-amino}-acetic acid] and Cc1cccc2c(O)c(C(=O)NCC(=O)O)c(=O)sc12 [Example 23, [(4-Hydroxy-8-methyl-2-oxo-2H-thiochromene-3-carbonyl)-amino]-acetic acid] are the same in inhibition at 50 µM: 97.5% for the first, 97.5% for the second.

Same assay, conditions: compound concentration 67 μM

First: O=C(O)CNC(=O)c1c(O)c2cc(-c3cc(C(F)(F)F)cc(C(F)(F)F)c3)ccc2sc1=O [Example 33, {[6-(3,5-Bis-trifluoromethyl-phenyl)-4-hydroxy-2-oxo-2H-thiochromene-3-carbonyl]-amino}-acetic acid]
Second: O=C(O)CNC(=O)c1c(O)c2cc(-c3ccccc3C(F)(F)F)ccc2sc1=O [Example 34, {[4-Hydroxy-2-oxo-6-(2-trifluoromethyl-phenyl)-2H-thiochromene-3-carbonyl]-amino}-acetic acid]
The inhibition at 67 µM of the first is lower: 99.4% for the first, 99.8% for the second.

First: O=C(O)CNC(=O)c1c(O)c2ccc(-c3ccccc3C(F)(F)F)cc2sc1=O [Example 32, {[4-Hydroxy-2-oxo-7-(2-trifluoromethyl-phenyl)-2H-thiochromene-3-carbonyl]-amino}-acetic acid]
Second: COc1ccccc1-c1ccc2sc(=O)c(C(=O)NCC(=O)O)c(O)c2c1 [Example 39, {[4-Hydroxy-6-(2-methoxy-phenyl)-2-oxo-2H-thiochromene-3-carbonyl]-amino}-acetic acid]
The inhibition at 67 µM of the first is lower: 93.2% for the first, 94.7% for the second.

First: O=C(O)CNC(=O)c1c(O)c2cc(Br)ccc2sc1=O [Example 27, [(6-Bromo-4-hydroxy-2-oxo-2H-thiochromene-3-carbonyl)-amino]-acetic acid]
Second: C[C@H](NC(=O)c1c(O)c2cc(Br)ccc2sc1=O)C(=O)O [Example 28, 2-(S)-[(6-Bromo-4-hydroxy-2-oxo-2H-thiochromene-3-carbonyl)-amino]-propionic acid]
The inhibition at 67 µM of the first is higher: 100% for the first, 98% for the second.

Going from O=C(O)CNC(=O)c1c(O)c2cc(-c3ccc(F)cc3)ccc2sc1=O [Example 38, {[6-(4-Fluoro-phenyl)-4-hydroxy-2-oxo-2H-thiochromene-3-carbonyl]-amino}-acetic acid] to C[C@H](NC(=O)c1c(O)c2ccc(-c3cccc(F)c3)cc2sc1=O)C(=O)O [Example 31, 2-(S)-{[7-(3-Fluoro-phenyl)-4-hydroxy-2-oxo-2H-thiochromene-3-carbonyl]-amino}-propionic acid], the inhibition at 67 µM rises from 96.6% to 98.4%.

Same assay, conditions: compound concentration 200 μM

First: CCCCCCOc1ccc2sc(=O)c(C(=O)NCC(=O)O)c(O)c2c1 [Example 64, [(6-Hexyloxy-4-hydroxy-2-oxo-2H-thiochromene-3-carbonyl)-amino]-acetic acid]
Second: COc1cc2sc(=O)c(C(=O)NCC(=O)O)c(O)c2cc1OC [Example 2, [(4-Hydroxy-6,7-dimethoxy-2-oxo-2H-thiochromene-3-carbonyl)-amino]-acetic acid]
The inhibition at 200 µM of the first is higher: 100% for the first, 99.4% for the second.
